PubChem BioAssay AID1963968 (Molecular Pharmacology Branch, DTP, NCI, 2024)

Tested on: 945468-187-T-J3-PDC spheroids with HUVEC/MSC, viability
Test: Anticancer human tumor 945468-187-T-J3-PDC patient-derived rectal carcinoma cell line growth inhibition [PI3K]
Conditions: for IC50: curve of first compound; for viability, T/C: stronger effect = lower value
How it was run: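 Tumor cells grown as multi-cell spheroids with HUVEC endothelial cells and MSC fibroblast-like stroma were treated with targeted agents combined with inavolisib, alpelisib, duvelisib or copanlisib. Doses fell in half-log steps from near clinical Cmax, else from 10 microM. Viability was measured.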

[1] = second compound 0.0316 µM, first compound 0.0316 µM
[2] = second compound 0.0316 µM, first compound 0.1 µM
[3] = second compound 0.1 µM, first compound 0.0316 µM
[4] = second compound 0.1 µM, first compound 0.1 µM
[5] = second compound 0.316 µM, first compound 0.0316 µM
[6] = second compound 0.316 µM, first compound 0.1 µM
[7] = second compound 1 µM, first compound 0.0316 µM
[8] = second compound 1 µM, first compound 0.1 µM
[9] = second compound 3.16 µM, first compound 0.0316 µM
[10] = second compound 3.16 µM, first compound 0.1 µM
[11] = second compound 10 µM, first compound 0.0316 µM
[12] = second compound 10 µM, first compound 0.1 µM
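Note: spheroids exposed to agents for 7 days before viability read.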
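Throughout, for viability, T/C: 100% = DMSO vehicle control viability.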

CC(=O)c1c(C)c2cnc(Nc3ccc(N4CCNCC4)cn3)nc2n(C2CCCC2)c1=O + CC(Nc1ncnc2nc[nH]c12)c1cc2cccc(Cl)c2c(=O)n1-c1ccccc1
IC50 (second compound 0.0316 µM): > 0.1 µM | IC50 (second compound 0.1 µM): > 0.1 µM | IC50 (second compound 0.316 µM): > 0.1 µM | IC50 (second compound 1 µM): > 0.1 µM | IC50 (second compound 3.16 µM): > 0.1 µM | IC50 (second compound 10 µM): > 0.1 µM | viability, T/C (second compound 0.0316 µM, first compound 0.000316 µM): 102% | viability, T/C (second compound 0.0316 µM, first compound 0.001 µM): 87.6% | viability, T/C (second compound 0.0316 µM, first compound 0.00316 µM): 106% | viability, T/C (second compound 0.0316 µM, first compound 0.01 µM): 92.5% | viability, T/C [1]: 96.6% | viability, T/C [2]: 92.6% | viability, T/C (second compound 0.1 µM, first compound 0.000316 µM): 91.4% | viability, T/C (second compound 0.1 µM, first compound 0.001 µM): 100% | viability, T/C (second compound 0.1 µM, first compound 0.00316 µM): 87.5% | viability, T/C (second compound 0.1 µM, first compound 0.01 µM): 91.4% | viability, T/C [3]: 99.1% | viability, T/C [4]: 113% | viability, T/C (second compound 0.316 µM, first compound 0.000316 µM): 111% | viability, T/C (second compound 0.316 µM, first compound 0.001 µM): 89.2% | viability, T/C (second compound 0.316 µM, first compound 0.00316 µM): 94.1% | viability, T/C (second compound 0.316 µM, first compound 0.01 µM): 94.5% | viability, T/C [5]: 99.3% | viability, T/C [6]: 98% | viability, T/C (second compound 1 µM, first compound 0.000316 µM): 98.3% | viability, T/C (second compound 1 µM, first compound 0.001 µM): 93.5% | viability, T/C (second compound 1 µM, first compound 0.00316 µM): 86.5% | viability, T/C (second compound 1 µM, first compound 0.01 µM): 93.2% | viability, T/C [7]: 102% | viability, T/C [8]: 89.4% | viability, T/C (second compound 3.16 µM, first compound 0.000316 µM): 95.2% | viability, T/C (second compound 3.16 µM, first compound 0.001 µM): 95% | viability, T/C (second compound 3.16 µM, first compound 0.00316 µM): 99.1% | viability, T/C (second compound 3.16 µM, first compound 0.01 µM): 98.6% | viability, T/C [9]: 105% | viability, T/C [10]: 93.8% | viability, T/C (second compound 10 µM, first compound 0.000316 µM): 106% | viability, T/C (second compound 10 µM, first compound 0.001 µM): 107% | viability, T/C (second compound 10 µM, first compound 0.00316 µM): 106% | viability, T/C (second compound 10 µM, first compound 0.01 µM): 108% | viability, T/C [11]: 106% | viability, T/C [12]: 103%

CNC(=O)c1ccc(N2C(=S)N(c3ccc(C#N)c(C(F)(F)F)c3)C(=O)C2(C)C)cc1F + CC(Nc1ncnc2nc[nH]c12)c1cc2cccc(Cl)c2c(=O)n1-c1ccccc1
IC50 (second compound 0.0316 µM): > 10 µM | IC50 (second compound 0.1 µM): > 10 µM | IC50 (second compound 0.316 µM): > 10 µM | IC50 (second compound 1 µM): > 10 µM | IC50 (second compound 3.16 µM): > 10 µM | IC50 (second compound 10 µM): > 10 µM | viability, T/C [1]: 101% | viability, T/C [2]: 113% | viability, T/C (second compound 0.0316 µM, first compound 0.316 µM): 98.4% | viability, T/C (second compound 0.0316 µM, first compound 1 µM): 102% | viability, T/C (second compound 0.0316 µM, first compound 3.16 µM): 98.4% | viability, T/C (second compound 0.0316 µM, first compound 10 µM): 100% | viability, T/C [3]: 99.7% | viability, T/C [4]: 109% | viability, T/C (second compound 0.1 µM, first compound 0.316 µM): 94.1% | viability, T/C (second compound 0.1 µM, first compound 1 µM): 116% | viability, T/C (second compound 0.1 µM, first compound 3.16 µM): 103% | viability, T/C (second compound 0.1 µM, first compound 10 µM): 106% | viability, T/C [5]: 99.5% | viability, T/C [6]: 93.8% | viability, T/C (second compound 0.316 µM, first compound 0.316 µM): 100% | viability, T/C (second compound 0.316 µM, first compound 1 µM): 108% | viability, T/C (second compound 0.316 µM, first compound 3.16 µM): 101% | viability, T/C (second compound 0.316 µM, first compound 10 µM): 97.1% | viability, T/C [7]: 96.5% | viability, T/C [8]: 102% | viability, T/C (second compound 1 µM, first compound 0.316 µM): 107% | viability, T/C (second compound 1 µM, first compound 1 µM): 106% | viability, T/C (second compound 1 µM, first compound 3.16 µM): 105% | viability, T/C (second compound 1 µM, first compound 10 µM): 94.8% | viability, T/C [9]: 102% | viability, T/C [10]: 113% | viability, T/C (second compound 3.16 µM, first compound 0.316 µM): 95% | viability, T/C (second compound 3.16 µM, first compound 1 µM): 107% | viability, T/C (second compound 3.16 µM, first compound 3.16 µM): 92.9% | viability, T/C (second compound 3.16 µM, first compound 10 µM): 110% | viability, T/C [11]: 99.5% | viability, T/C [12]: 99.2% | viability, T/C (second compound 10 µM, first compound 0.316 µM): 107% | viability, T/C (second compound 10 µM, first compound 1 µM): 99.2% | viability, T/C (second compound 10 µM, first compound 3.16 µM): 105% | viability, T/C (second compound 10 µM, first compound 10 µM): 109%

Cn1cnc2c(F)c(Nc3ccc(Br)cc3Cl)c(C(=O)NOCCO)cc21 + CC(Nc1ncnc2nc[nH]c12)c1cc2cccc(Cl)c2c(=O)n1-c1ccccc1
IC50 (second compound 0.0316 µM): > 3 µM | IC50 (second compound 0.1 µM): > 3 µM | IC50 (second compound 0.316 µM): > 3 µM | IC50 (second compound 1 µM): > 3 µM | IC50 (second compound 3.16 µM): > 3 µM | IC50 (second compound 10 µM): > 3 µM | viability, T/C (second compound 0.0316 µM, first compound 0.00949 µM): 106% | viability, T/C (second compound 0.0316 µM, first compound 0.03 µM): 103% | viability, T/C (second compound 0.0316 µM, first compound 0.0949 µM): 116% | viability, T/C (second compound 0.0316 µM, first compound 0.3 µM): 115% | viability, T/C (second compound 0.0316 µM, first compound 0.949 µM): 104% | viability, T/C (second compound 0.0316 µM, first compound 3 µM): 87.2% | viability, T/C (second compound 0.1 µM, first compound 0.00949 µM): 96% | viability, T/C (second compound 0.1 µM, first compound 0.03 µM): 98% | viability, T/C (second compound 0.1 µM, first compound 0.0949 µM): 109% | viability, T/C (second compound 0.1 µM, first compound 0.3 µM): 104% | viability, T/C (second compound 0.1 µM, first compound 0.949 µM): 101% | viability, T/C (second compound 0.1 µM, first compound 3 µM): 95.6% | viability, T/C (second compound 0.316 µM, first compound 0.00949 µM): 100% | viability, T/C (second compound 0.316 µM, first compound 0.03 µM): 104% | viability, T/C (second compound 0.316 µM, first compound 0.0949 µM): 108% | viability, T/C (second compound 0.316 µM, first compound 0.3 µM): 111% | viability, T/C (second compound 0.316 µM, first compound 0.949 µM): 112% | viability, T/C (second compound 0.316 µM, first compound 3 µM): 89% | viability, T/C (second compound 1 µM, first compound 0.00949 µM): 97.2% | viability, T/C (second compound 1 µM, first compound 0.03 µM): 99.6% | viability, T/C (second compound 1 µM, first compound 0.0949 µM): 110% | viability, T/C (second compound 1 µM, first compound 0.3 µM): 103% | viability, T/C (second compound 1 µM, first compound 0.949 µM): 106% | viability, T/C (second compound 1 µM, first compound 3 µM): 84.1% | viability, T/C (second compound 3.16 µM, first compound 0.00949 µM): 94.5% | viability, T/C (second compound 3.16 µM, first compound 0.03 µM): 119% | viability, T/C (second compound 3.16 µM, first compound 0.0949 µM): 105% | viability, T/C (second compound 3.16 µM, first compound 0.3 µM): 107% | viability, T/C (second compound 3.16 µM, first compound 0.949 µM): 102% | viability, T/C (second compound 3.16 µM, first compound 3 µM): 73.8% | viability, T/C (second compound 10 µM, first compound 0.00949 µM): 101% | viability, T/C (second compound 10 µM, first compound 0.03 µM): 98.8% | viability, T/C (second compound 10 µM, first compound 0.0949 µM): 97.2% | viability, T/C (second compound 10 µM, first compound 0.3 µM): 98.4% | viability, T/C (second compound 10 µM, first compound 0.949 µM): 93.7% | viability, T/C (second compound 10 µM, first compound 3 µM): 60.6%
